Read-outs that look alike come from different tables or passages of the source.
Key:
HCT116 pERK = assay: Phospho-ERK inhibition, AlphaLISA SureFire Ultra p-ERK 1/2; assay type: cell-based, human; conditions: for IC50: 1 h treatment; for HCT116 (Ymin %): lowest value of the pERK IC50 curve
Method: (§1) All cancer cell lines (A375, A101D, A2058, RKO, HT29 SK-MEL 30, IPC298, HepG2, HCT-116, Lovo, SW620, SW480, NCI-H358, NCI-H2122, Calu-6, NCIH2087, NCIH1755, NCIH1666 and Mewo) were obtained from ATCC and cultured in RPMI-1640 medium (Gibco) supplemented with 5% heat inactivated fetal bovine serum (FBS, Wisent) at 37° C. under 5% CO2. Cells were maintained in T175 flasks (Greiner). They were passaged by removing the culture medium, washing once in 10 mL of room temperature Phosphate Buffered Saline (PBS; Wisent) and incubating at 37° C. with 2 mL of 0.05% Trypsin (Thermo-Fisher). Trypsin was then inactivated by adding complete growth medium and the cells were then replated in a T175 culture dish at the appropriate dilution. All cell lines were routinely tested for mycoplasma contamination. Tissue type and mutational status of each cell line can be found in Table B.
(§2) AlphaLISA® SureFire® Ultra™ p-ERK ½ (Thr202/Tyr204) analysis was conducted on cells plated in 100 μL of complete RPMI-1640 growth medium in 96-well flat-bottomed transparent dishes (Costar) at a density indicated in Table C. Cells were maintained overnight at 37° C. under 5% CO2 before treatment with compounds' dilution series for one hour. The cell density in cells/cm^2 corresponds to cell number divided by the area of one well of a 96-well plate ([…]).
(§3) In a dilution series 100 μL/well of test substance dilution prepared in complete RPMI-1640 growth media was added to the cells. The dilution series is selected so that ten concentrations cover a range from 30 μM or 10 μM to 0.33 nM. If necessary, the initial concentration of 10 μM is increased to 100 μM or lowered to 1 μM (as in the case of A375 and NCIH1666 cells, which are generally more sensitive to the compounds) and further dilution is carried out accordingly. The final concentration of DMSO in the assay is set at 0.5%.
(§4) After treatment, media was removed, and cells were lysed in 50 μL of 1× AlphaScreen Ultra Lysis Buffer (Perkin Elmer). The AlphaLISA® SureFire® Ultra™ p-ERK ½ (Thr202/Tyr2O4) (PerkinElmer) reactions were performed with 5 μL of cell lysate according to the manufacturer's specifications in 384-well proxyplates (Perkin Elmer) followed by overnight incubation of the reactions at room temperature in a humidified chamber. After completion of the reactions, the signals were recorded on an EnVision plate reader (Perkin Elmer) using built in AlphaLISA® settings.
(§5) The effect of each compound dilution on the pERK signal was expressed in % inhibition and calculated as follows. An internal 100% inhibition control (1 μM trametinib, cat. No. HY-10999; MedChem Express; CAS No. 871700-17-3) was included in each plate and used as a measure of pERK background. First, the value obtained for trametinib was subtracted from each data point. The average of DMSO (vehicle) controls (set as 0% inhibition) was established and used to calculate % inhibition:
(§6) The ability of each compound to inhibit pERK signal was expressed as an IC50 value obtained by plotting the inhibition values for each data point of a dilution series and fitting the obtained curves using a log(agonist) versus response−variable slope (four parameters) function using GraphPadPrism (V7.0).
(§7) When present, paradoxical pERK induction is inferred from the negative % inhibition values observed in the pERK IC50 curves of a compound.

SW480 pERK = assay: as above; assay type: cell-based, human; conditions: for IC50: 1 h treatment; for SW480 (Ymin %): lowest value of the pERK IC50 curve
Method: as §1, §2, §3, §4, §5, §6, §7

[1] = Table 3, read-out: SW480 PERK IC50
[2] = Table 2, read-out: SW480 PERK IC50 (UM)

Row | Compound | IC50 (HCT116 pERK; Table 3) | IC50 (SW480 pERK; [1]) | IC50 (HCT116 pERK; Table 2) | HCT116 (Ymin %) (HCT116 pERK; Table 3) | SW480 (Ymin %) (SW480 pERK; Table 3) | HCT116 (Ymin %) (HCT116 pERK; Table 2) | further results
1 | COc1ccc(S(=O)(=O)Nc2ccc(F)c(Nc3ncnc4cnc(-n5cnc(C)c5C)nc34)c2F)c(C)c1 [Example 56] | 1 to 10 µM | 1 to 10 µM |  | −10% | 4% |  | 
2 | CSc1ncc2ncnc(Nc3c(F)ccc(NS(=O)(=O)N4CCC(F)(F)C4)c3F)c2n1 [Example 27] |  |  | 10 to 30 µM |  |  | −6% | 
3 | COc1ccc(S(=O)(=O)Nc2ccc(F)c(Nc3ncnc4cnc(SC)nc34)c2F)cc1OC [Example 2] |  |  | 1 to 10 µM |  |  | −14% | IC50 (SW480 pERK; [2]): 1 to 10 µM; SW480 (Ymin %) (SW480 pERK; Table 2): 5%
4 | COc1ccc(S(=O)(=O)Nc2ccc(F)c(Nc3ncnc4c(N)nc(-n5cnc(C)c5C)nc34)c2F)c(C)c1 [Example 86] |  |  |  |  |  |  | IC50 (HCT116 pERK; Table 4): 1 to 10 µM; HCT116 (Ymin %) (HCT116 pERK; Table 4): 8%; IC50 (SW480 pERK; Table 4, read-out: SW480 PERK IC50): 1 to 10 µM; SW480 (Ymin %) (SW480 pERK; Table 4): 3%
5 | COc1ccc(S(=O)(=O)Nc2ccc(F)c(Nc3ncnc4cnc(-n5cnc(C)c5C)nc34)c2F)c(F)c1 [Example 53] | 1 to 10 µM | 1 to 10 µM |  | 15% | −4% |  | 
6 | CSc1ncc2ncnc(Nc3c(F)ccc(NS(=O)(=O)c4ccccc4Cl)c3F)c2n1 [Example 21] |  |  | 1 to 10 µM |  |  | 2% | IC50 (SW480 pERK; [2]): 1 to 10 µM; SW480 (Ymin %) (SW480 pERK; Table 2): 9%
7 | CSc1ncc2ncnc(Nc3c(F)ccc(NS(=O)(=O)c4ccc(C)cc4C)c3F)c2n1 [Example 23] |  |  | 1 to 10 µM |  |  | 0% | IC50 (SW480 pERK; [2]): 1 to 10 µM; SW480 (Ymin %) (SW480 pERK; Table 2): −7%
8 | COC(=O)c1sccc1S(=O)(=O)Nc1ccc(F)c(Nc2ncnc3cnc(SC)nc23)c1F [Example 3] |  |  | 1 to 10 µM |  |  | −7% | IC50 (SW480 pERK; [2]): 1 to 10 µM; SW480 (Ymin %) (SW480 pERK; Table 2): 9%
9 | COc1ccc(S(=O)(=O)Nc2ccc(F)c(Nc3ncnc4cnc(SC)nc34)c2F)c(F)c1 [Example 8] |  |  | 1 to 10 µM |  |  | −3% | IC50 (SW480 pERK; [2]): 1 to 10 µM; SW480 (Ymin %) (SW480 pERK; Table 2): 15%
10 | COc1ccc(S(=O)(=O)Nc2ccc(F)c(Nc3ncnc4cnc(-n5cnc6ccccc65)nc34)c2F)c(C)c1 [Example 55] | 1 to 10 µM | 1 to 10 µM |  | −4% | −2% |  | 
11 | O=S(=O)(Nc1ccc(F)c(Nc2ncnc3cnc(-n4cnc5ccccc54)nc23)c1F)c1ccc2c(c1)CCO2 [Example 64] | 1 to 10 µM | 1 to 10 µM |  | 2% | 19% |  | 
12 | CSc1ncc2ncnc(Nc3c(F)ccc(NS(=O)(=O)c4ccccc4C)c3F)c2n1 [Example 20] |  |  | 1 to 10 µM |  |  | 7% | IC50 (SW480 pERK; [2]): 1 to 10 µM; SW480 (Ymin %) (SW480 pERK; Table 2): 12%
13 | CO[C@@H]1CCN(S(=O)(=O)Nc2ccc(F)c(Nc3ncnc4cnc(-n5nnc6ccccc65)nc34)c2F)C1 [Example 72] | 1 to 10 µM | 1 to 10 µM |  | 20% | 1% |  | 
14 | Cc1ncn(-c2ncc3ncnc(Nc4c(F)ccc(NS(=O)(=O)c5ccc6c(c5)CCO6)c4F)c3n2)c1C [Example 65] | 1 to 10 µM | 1 to 10 µM |  | 4% | 5% |  | 
15 | CSc1ncc2ncnc(Nc3c(F)ccc(NS(=O)(=O)c4ccc5c(c4)OCO5)c3F)c2n1 [Example 6] |  |  | 10 to 30 µM |  |  | −10% | IC50 (SW480 pERK; [2]): 1 to 10 µM; SW480 (Ymin %) (SW480 pERK; Table 2): 1%
16 | CSc1ncc2ncnc(Nc3c(F)ccc(NS(=O)(=O)c4ccc(Cl)cc4Cl)c3F)c2n1 [Example 15] |  |  | 10 to 30 µM |  |  | −3% | IC50 (SW480 pERK; [2]): 10 to 30 µM; SW480 (Ymin %) (SW480 pERK; Table 2): 0%
17 | CCC1CCN(S(=O)(=O)Nc2ccc(F)c(Nc3ncnc4cnc(-n5cnc6ccccc65)nc34)c2F)C1 (stereo not shown) [Example 76] | 1 to 10 µM | 1 to 10 µM |  | −1% | −9% |  | 
18 | COc1ccc(S(=O)(=O)Nc2ccc(F)c(Nc3ncnc4cnc(Oc5cccc(C#N)c5)nc34)c2F)cc1 [Example 49] | 10 to 30 µM | 10 to 30 µM |  | 8% | −9% |  | 
19 | CC1CCN(S(=O)(=O)Nc2ccc(F)c(Nc3ncnc4cnc(-n5cnc6ccccc65)nc34)c2F)C1 (stereo not shown) [Example 73] | 1 to 10 µM | 1 to 10 µM |  | −2% | 7% |  | 

Now from value to compound, other results behind:

Row | IC50 (HCT116 pERK; Table 3) | IC50 (SW480 pERK; [1]) | IC50 (HCT116 pERK; Table 2) | Compound | HCT116 (Ymin %) (HCT116 pERK; Table 3) | SW480 (Ymin %) (SW480 pERK; Table 3) | HCT116 (Ymin %) (HCT116 pERK; Table 2) | further results
20 | 10 to 30 µM | 10 to 30 µM |  | COc1ccc(S(=O)(=O)Nc2ccc(F)c(Nc3ncnc4cnc(OC)nc34)c2F)cc1 [Example 46] | 8% | 12% |  | 
21 | 10 to 30 µM | 10 to 30 µM |  | COc1ccc(S(=O)(=O)Nc2ccc(F)c(Nc3ncnc4cnc(N5CC[C@@H](F)C5)nc34)c2F)cc1 [Example 38] | −1% | −3% |  | 
22 | 10 to 30 µM | 1 to 10 µM |  | COc1ccc(S(=O)(=O)Nc2ccc(F)c(Nc3ncnc4cnc(-n5ccnc5)nc34)c2F)cc1 [Example 35] | −4% | 14% |  | 
23 | 10 to 30 µM | 10 to 30 µM |  | COc1ccc(S(=O)(=O)Nc2ccc(F)c(Nc3ncnc4cnc(N5CCC(O)C5)nc34)c2F)cc1 (stereo not shown) [Example 42] | −2% | 11% |  | 
24 | 1 to 10 µM | 1 to 10 µM |  | CO[C@@H]1CCN(S(=O)(=O)Nc2ccc(F)c(Nc3ncnc4cnc(N5CC[C@H](F)C5)nc34)c2F)C1 [Example 60] | 9% | 15% |  | 
25 | 1 to 10 µM | 1 to 10 µM |  | COc1ccc(S(=O)(=O)Nc2ccc(F)c(Nc3ncnc4cnc(N5CC(F)C5)nc34)c2F)c(F)c1 [Example 52] | −4% | −8% |  | 
26 | 1 to 10 µM | 1 to 10 µM |  | COc1ccc(S(=O)(=O)Nc2ccc(F)c(Nc3ncnc4cnc(N5CC[C@H](F)C5)nc34)c2F)cc1 [Example 31] | 13% | 11% |  | 
27 |  |  | 10 to 30 µM | CSc1ncc2ncnc(Nc3c(F)ccc(NS(=O)(=O)c4ccc(C)cc4)c3F)c2n1 [Example 18] |  |  | 4% | IC50 (SW480 pERK; [2]): 1 to 10 µM; SW480 (Ymin %) (SW480 pERK; Table 2): 11%
28 | 10 to 30 µM | 10 to 30 µM |  | COc1ccc(S(=O)(=O)Nc2ccc(F)c(Nc3ncnc4cnc(N5CCC(O)C5)nc34)c2F)cc1 (stereo not shown) [Example 41] | 13% | 6% |  | 
29 | 10 to 30 µM | 1 to 10 µM |  | O=S(=O)(Nc1ccc(F)c(Nc2ncnc3cnc(N4CC[C@H](F)C4)nc23)c1F)c1ccc2c(c1)CCO2 [Example 66] | 10% | 0% |  | 
30 | 1 to 10 µM | 1 to 10 µM |  | COc1ccc(S(=O)(=O)Nc2ccc(F)c(Nc3ncnc4cnc(N5CC[C@H](F)C5)nc34)c2F)c(F)c1 [Example 44] | −2% | 12% |  | 
31 | 10 to 30 µM | 10 to 30 µM |  | COc1ccc(S(=O)(=O)Nc2ccc(F)c(Nc3ncnc4cnc(N5CCC5)nc34)c2F)cc1 [Example 43] | 11% | 0% |  | 
32 | 10 to 30 µM | 1 to 10 µM |  | COc1ccc(S(=O)(=O)Nc2ccc(F)c(Nc3ncnc4cnc(-n5ccnc5C)nc34)c2F)cc1 [Example 32] | 1% | 8% |  | 
33 | 10 to 30 µM | 10 to 30 µM |  | COc1ccc(S(=O)(=O)Nc2ccc(F)c(Nc3ncnc4cnc(N5CCC(F)(F)C5)nc34)c2F)cc1 [Example 39] | 5% | −3% |  | 

— patent US20240239801A1, “PYRIMIDO[5,4,D]PYRIMIDINE COMPOUNDS, COMPOSITIONS COMPRISING THEM AND USES THEREOF” (Université de Montréal, priority 2021, published 2024)
